Laboratory results reported in patent publication US20250275944A1, “RELATIVE UNDERSUPPLY OF AN AMYLOID BETA AGGREGATION INHIBITOR FOR IMPROVED DETOXIFYING EFFECTS” (Galimedix Therapeutics Inc, priority 2022, published 2025).
“Also recorded” adds a separate entry of the source. Non-standard residues stand in square brackets, D forms with d. Residues, ends and D or L forms follow the SMILES beside them. Aib = CC(C)(N)C(=O)O

Columns and labels:
amyloid beta Aβ1-42 = amyloid beta Aβ1-42 (Homo sapiens, UniProt P05067); settings: read-out: binding affinity to amyloid beta Aβ1-42; cited from earlier work
oligomeric Aβ1-42 = biological target: T1, oligomeric Aβ1-42 (Homo sapiens, UniProt P05067); assay: In vivo LTP in anesthetized rats after i.c.v. oligomeric Aβ1-42; set-up: species or system rat; settings: for PS amplitude 80-90 min after LTP induction: Aβ1-42 alone 138.1±4.1, vehicle 179.2±8.7
T1 construct: Amyloid beta Aβ1-42 has been injected into brain ventricles at a concentration that strongly suppresses LTP; host or cells: peptide solution injected into anesthetized rats
Procedure: FIG. 3 Represents a graphical illustration of compound (1)'s dose-dependent effects on in vivo LTP in anesthetized rats at very low concentrations. Given are normalized LTP of population spike (PS) amplitude at 80-90 min post theta burst stimulation (TBS). Compound (1) has been administered s.c. at dose of 0.08 mg/kg, 0.4 mg/kg, and 2.0 mg/kg. Amyloid beta Aβ1-42 has been injected into brain ventricles at a concentration that strongly suppresses LTP (black column). […] The aim of this experiment was to evaluate the dose-dependent effects of compound (1) on in vivo LTP in anesthetized rats at very low concentrations. Compound (1) has been administered s.c. at dose of 0.08 mg/kg, 0.4 mg/kg, and 2.0 mg/kg. Amyloid beta Aβ1-42 has been injected into brain ventricles at a concentration that strongly suppresses LTP. […] In animals subject to intracerebroventricular (i.c.v.) injection of 6 μL oligomeric Aβ1-42 solution (1.67 mM) significant deficits in LTP were observed. (FIG. 3). At the end of the recording period, 80-90 min after LTP induction, the PS amplitude following i.c.v. administration of oligomeric Aβ1-42 measured 138.1±4.1% of baseline (n=18), compared to 179.2±8.7% in PBS-injected animals (n=12). In animals subjected to i.c.v injection of 6 μL oligomeric Aβ1-42, 3 different s.c. doses of compound (1), namely 0.08, 0.4 and 2 mg/kg, were administrated before i.c.v. injection of oligomeric Aβ1-42. […] At the end of the recording period, 80-90 min after LTP induction, the PS amplitude following s.c. administration of compound (1) and i.c.v. administration of oligomeric Aβ1-42 measured 170.0±11.9% of baseline (n=7) for the 2 mg/kg dose, 174.7±16.0% of baseline (n=6) for the 0.4 mg/kg dose, and 139.6±13.1% of baseline (n=4) for the 0.08 mg/kg dose, compared to 179.2±8.7% in vehicle-treated controls (n=12) and 138.1±4.1% i.c.v. oligomeric Aβ1-42-injected animals (n=18).

Aβ1-42 oligomers = biological target: T2, Aβ1-42 oligomers (Homo sapiens, UniProt P05067); assay: In vitro LTP in hippocampal brain slices superfused with 50 nM Aβ1-42; set-up: species or system mice; settings: for effect on Aβ1-42 toxicity in in vitro LTP: 50 nM Aβ1-42; for Relative effect size (blocking Aβ1-42 toxicity): control LTP = 100%, Aβ1-42 alone = 0%
T2 construct: host or cells: peptide added to the superfusion solution of hippocampal slices
Procedure: FIGS. 4A-B. FIG. 4A Illustrates plots from in vitro LTP experiments using rat brain slices that were superfused at 23° C. with 50 nM Aβ1-42 and/or with 10 nM compound (1). The compound (1) solution was added for 90 min before HFS was delivered in the first input (dark grey circles). […] To ensure the validity of the Aβ1-42-mediated effect, interleaved experiments with Aβ1-42 (50 nM, closed circles, n=12) were additionally performed in separate slices. […] Representative field excitatory postsynaptic potentials ([…]) are shown on top. FIG. 4B Represents a graphical illustration of compound (1)'s dose-dependent effects on in vitro LTP in rat brain slices based on LTP experiments shown in FIG. 4A. Toxic Aβ1-42 oligomers formed from 50 nM amyloid beta Aβ1-42 monomers block the LTP response almost entirely (black column). […] This refutes the previous scientific status, which called for an excess of the detoxifying agent. Data are shown as means of 5 experiments (n=5)±standard deviations. For the long-term potentiation (LTP) experiments brain slices from 2 months old mice were used. Transverse hippocampal slices (350 μm thick) were obtained after decapitation under isoflurane-anesthesia. All slices were placed in a holding chamber for at least 60 min and were then transferred to a super fusing chamber for extracellular recordings. The flow rate of the solution through the chamber was 4 ml/min. […] All experiments were performed at room temperature. Aβ1-42 stock solution in DMSO was added to the bath solution to give a final concentration of 50 nM. Extracellular recordings of field excitatory postsynaptic potentials (fEPSPs) were obtained from the dendritic region of the CA1 region of the hippocampus using glass micropipettes filled with superfusion solution. For all recordings both stimulating electrodes were used to utilize the input specificity of LTP and thereby allow the measurement of an internal control within the same slice. Steady baseline recordings were made for at least 30 minutes before application of tetanic stimuli. For LTP induction, high-frequency stimulation (HFS) conditioning pulses (100 Hz/1 s; 4-5 V) were applied to the Schaffer collateral commissural pathway via two independent inputs. Before inducing LTP, Aβ1-42 has been applied for 90 min. HFS was delivered from one of the electrodes under conditions in the presence of Compound (1) and potentiation of the responses was monitored for at least 60 min after the tetanus. Either Aβ1-42 was then applied via the bath solution for 90 min before attempting to induce LTP in the second input following HFS delivered via the second electrode. Amplified fEPSPs were filtered (3 kHz), digitized (15 kHz), measured and plotted (FIG. 4A). Measurements of the slope of the fEPSP were taken between 20% and 80% of the peak amplitude. Slopes of fEPSPs were normalized with respect to the 20 min control period before tetanic stimulation. Compound (1) was used at various concentrations in these LTP experiments. […] FIG. 4B summarizes the effects of different compound (1) concentrations leading to different stoichiometric Aβ1-42/compound (1) ratios (10:1, 2:1, 1:5). The LTP signals (fEPSP potentiation) calculated as the average of the last 50-60 mins after HFS are presented as a bar diagram. […] The control experiment is defined as 100% normalized LTP response and the toxic effect of 50 nM Aβ1-42 oligomers is defined as 0% normalized LTP change. Using the usual stoichiometric excess for compound (1), namely 500 nM or 100 nM, leads to a weak detoxifying effect of 40.2% and 34.7%, respectively.

[1] = Pharmacokinetics in the rat brain: microdialysis of brain interstitial fluid (prefrontal cortex), HPLC-MS/MS; format: in vivo
Procedure: FIG. 2 Represents a graphical illustration of compound (1)'s pharmacokinetics in the rat brain. Compound (1) was administered as subcutaneous (s.c.) injection at doses of 0.4 mg/kg (∇) and […] (O, Δ). A microdialysis probe has been placed in the prefrontal cortex of these adult male Sprague Dawley rats to measure the concentration of compound (1) in the brain interstitial fluid (ISF) using a HPLC system with MS/MS detector. The dialysate samples were collected at a flow rate of 0.10 μL/min with a carrier flow rate of 0.8 μL/min. The animals were either anesthetized or awake and freely moving. Microdialysis data over a period of 360 min are depicted on a linear scale as means of 4 measurements±SEM.
The aim of this experiment was to evaluate the pharmacokinetics of compound (1) in the rat brain. Compound (1) was administered subcutaneously to anesthetized or awake and freely moving animals. A microdialysis probe has been placed in the prefrontal cortex of these adult male Sprague Dawley rats to measure the concentration of compound (1) in the brain interstitial fluid (ISF) using a HPLC system with MS/MS detector.

Aβ1-42 monomers = biological target: T3, Aβ1-42 monomers (Homo sapiens, UniProt P05067); assay: Surface Plasmon Resonance (SPR) binding of compound (1) to immobilized Aβ1-42 monomers (Biacore X100)
T3 construct: purchased American Peptide Company, Sunnyvale, CA, USA; host or cells: synthetic peptide
Procedure: FIG. 1 Represents a graphical illustration of compound (1)'s target affinity to amyloid beta Aβ1-42 monomers using Surface Plasmon Resonance (SPR). Synthetic Aβ1-42 was used for this binding assay performed with a Biacore X100 biosensor instrument equipped with two flow cells. Aβ1-42 was covalently coupled to one flow cell of CM7 sensor chips using an amine coupling kit. HBS-EP was used as assay running buffer. The analyte compound (1) was injected over the sensor chip in concentrations ranging from 0.3 nM up to 1000 nM at a flow rate of 10 μL/min for 180 sec at 25° C. […]
The aim of this experiment was to evaluate the target affinity of compound (1) to misfolded Aβ1-42 monomers. The affinity was determined using in vitro Surface Plasmon Resonance (SPR) technology. […]
The resonance units (RUs) elicited by the compound injected into the ethanolamine control flow cell was set as reference response and subtracted from the RUs elicited by the same compound injected to the Aβ saturated flow cell. […] The dissociation equilibrium constant KD of the analyte to the immobilized Aβ was determined from the steady-state levels estimating the maximum RU Rmax and calculating the KD as the concentration of the compound that elicited one-half of the Rmax.

T2 sequence (P05067 672-713 limits assumed): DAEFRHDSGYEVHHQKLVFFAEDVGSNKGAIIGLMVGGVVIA
T1 sequence (P05067 672-713 limits assumed): as above
T3 sequence (P05067 672-713 limits assumed): as above
Sequence of amyloid beta Aβ1-42 (P05067 672-713 limits assumed): as above

CC(C)(NC(=O)C(N)Cc1c[nH]c2ccccc12)C(=O)O (stereo not shown) [GAL-101, 2-[2-Amino-3-(1H-indol-3-yl)-propionylamino]-2-methyl-propionic acid]
Kd (amyloid beta Aβ1-42): 28.9 ± 2.9 nM

CC(C)(NC(=O)[C@H](N)Cc1c[nH]c2ccccc12)C(N)=O [compound (1), (2R)-2-amino-N-(1-carbamomyl-1-methlyethyl)-3-(1H-indol-3-yl) propanamide] (H-[dW]-[Aib]-NH2)
effect on Aβ1-42-suppressed in vivo LTP (oligomeric Aβ1-42; 0.08 mg/kg s.c.): loss of the pharmacological effect
PS amplitude 80-90 min after LTP induction (oligomeric Aβ1-42; 0.08 mg/kg s.c. + i.c.v. oligomeric Aβ1-42, n=4): 139.6±13.1 % of baseline
effect on Aβ1-42-suppressed in vivo LTP (oligomeric Aβ1-42; 0.4 mg/kg s.c.): at least as potent efficacy on LTP; also recorded: fully restored LTP signal; also recorded: brought post-TBS responses towards those observed in control animals
PS amplitude 80-90 min after LTP induction (oligomeric Aβ1-42; 0.4 mg/kg s.c. + i.c.v. oligomeric Aβ1-42, n=6): 174.7±16.0 % of baseline
effect on Aβ1-42-suppressed in vivo LTP (oligomeric Aβ1-42; 2 mg/kg s.c.): brought post-TBS responses towards those observed in control animals; also recorded: normalizes the LTP signal
PS amplitude 80-90 min after LTP induction (oligomeric Aβ1-42; 2 mg/kg s.c. + i.c.v. oligomeric Aβ1-42, n=7): 170.0±11.9 % of baseline
effect on Aβ1-42 toxicity in in vitro LTP (Aβ1-42 oligomers; 10 nM compound (1)): best prevented the detrimental effect of 50 nM Aβ1-42 on hippocampal LTP; also recorded: able to prevent LTP blockade; also recorded: blocks Aβ1-42 toxicity almost completely
Relative effect size (blocking Aβ1-42 toxicity) (Aβ1-42 oligomers; 10 nM compound (1), 50 nM Aβ1-42, ratio 1:5): 88.1%
LTP induction in presence of compound alone (Aβ1-42 oligomers; 10 nM compound (1), 90 min before HFS, no Aβ1-42): allowed the induction of LTP
effect on Aβ1-42 toxicity in in vitro LTP (Aβ1-42 oligomers; 100 nM compound (1)): only partially alleviate the toxic effect of Aβ1-42
Relative effect size (blocking Aβ1-42 toxicity) (Aβ1-42 oligomers; 100 nM compound (1), 50 nM Aβ1-42, ratio 2:1): 34.7%
Relative effect size (blocking Aβ1-42 toxicity) (Aβ1-42 oligomers; 100 nM compound (1), 50 nM Aβ1-42, ratio 2:1, listed as Compound (1)): 34.7%
effect on Aβ1-42 toxicity in in vitro LTP (Aβ1-42 oligomers; 500 nM compound (1)): only partially alleviate the toxic effect of Aβ1-42
Relative effect size (blocking Aβ1-42 toxicity) (Aβ1-42 oligomers; 500 nM compound (1), 50 nM Aβ1-42, ratio 10:1): 40.2%
Relative effect size (blocking Aβ1-42 toxicity) (Aβ1-42 oligomers; 500 nM compound (1), 50 nM Aβ1-42, ratio 10:1, listed as Compound (1)): 40.2%
detoxifying effect in undersupply compared to stoichiometric excess (Aβ1-42 oligomers; 10-fold undersupply (ratio 1:10) as worded, refers to Table 1): more than double as strong
molecules of Aβ1-42 detoxified by 1 molecule of compound (1) (Aβ1-42 oligomers; efficacy at 10 nM vs 50 nM Aβ1-42): 5
peak brain concentration (extracellular space of the brain) ([1]; s.c. 0.4 mg/kg): 10 nM
brain concentration (brain ISF) ([1]; s.c. 2 mg/kg): ca. 60 nM
Kd (Aβ1-42 monomers; SPR steady state, 25° C, HBS-EP, 0.3-1000 nM, n=4, read-out: KD (dissociation constant) at Aβ1-42 monomers): 2.5 ± 0.6 nM
affinity to the target compared to GAL-101 (fold stronger) (Aβ1-42 monomers; compound (1) vs GAL-101): 4 fold
